Where a SMILES comes first, the peptide text is derived from it. The star is where a group is joined. pNA = O=[N+]([O-])c1ccc(N*)cc1; MeOSuc = COC(=O)CCC(=O)*
Key:
TCT8-4 RNA = experiment: Competition binding of xanthine derivatives, equilibrium filtration; settings: for Ki: 1 µM 14C-theophylline, 3.3 µM TCT8-4 RNA, read-out: Kc; for Kc(c)/Kc(t): competitor relative to theophylline
Procedure: An attractive feature of a small molecule-RNA interaction is the opportunity to readily investigate quantitatively the relative contribution of various constituents of the small molecule to the overall binding. Competition binding experiments were conducted with a variety of xanthine derivatives and related compounds. In these experiments, the effect of competitor added at various concentrations on the ^14C-theophylline-TCT8-4 RNA interaction was measured. Of particular interest were the roles of CH3 residues at the 1, 3, and 7 positions; these were assessed both individually and in combination. In addition, 1,3-dimethyluric acid probes the 8-position, as it contains a keto oxygen there relative to theophylline, and hypoxanthine, lacking the 2-position keto oxygen of xanthine, permit assessment of this constituent.
Equilibrium filtration assays were performed by the addition of various concentrations of the potential competitor to 1 µM [^14C]-theophylline and 3.3 µM TCT8-4 RNA (SEQ ID NO:249) in a 150 µl reaction mixture containing 100 mM HEPES buffer. Each reaction was performed as described in Example 23. Competition data were fit using a standard competition equation and fitting procedure (Gill et al. (1991) J. Mol. Biol. 220:307) assuming a 1:1 stoichiometry of competitor to RNA. […] From such data a competitor dissociation constant (Kc) was obtained. Under the condition where theophylline and the specific competitor bind to the same site, Kc = Kd.

T7 RNA polymerase = molecular target: T1, T7 RNA polymerase (Escherichia phage T7, UniProt P00573); experiment: Incorporation of modified nucleotide triphosphates into RNA by T7 RNA polymerase transcription; type: biochemical; settings: for efficiency of transcription (incorporation) as compared to UTP: three hours, 2 mM ribonucleotide triphosphates, 100 nM double-stranded DNA template, 5 units/ul T7 RNA polymerase
T1 construct: purchased NEB
Procedure: Incorporation of 5-modified uridines into RNA. Four prototypic 5-modified uridines, 5-AA-UTP, 5-F-12-UTP, 5-Dig-11-UTP, and 5-Br-UTP (shown in Figure 2) were incorporated into RNA by the T7.RNA polymerase under standard transcription conditions (40 mM Tris-Cl, pH 8.0, 12 mM MgCl2, 5 mM DTT, 1 mM spermidine, 0.002% Triton X-100, 4% PEG, 37°C). Autoradiogram of a 15% denaturing polyacrylamide gel showing products of transcription done with UTP, 5-AA-UTP, and 5-Br-UTP is shown in Figure 3. The efficiency of transcription was estimated from the total amounts of ^32P-radiolabelled transcript produced after three hours of incubation with 2 mM ribonucleotide triphosphates, 100 nM double-stranded DNA template, and 5 units/ul of T7 RNA polymerase (NEB). 5-AA-UTP, 5-F-12-UTP, 5-Dig-11-UTP, and 5-Br-UTP were incorporated with 28%, 51%, 23%, and 50% efficiency, respectively, as compared to UTP. No transcription was detectable when UTP was omitted from the transcription mixture.
The 2'-amino group of 2'-amino,2'-deoxyuridine is trifluoroacetylated (Imazawa et al. (1979) J. Org. Chem. 44:2039) in 82% yield. This intermediate is phosphorylated at the 5'-position (Ludwig and Eckstein (1989) J. Org. Chem. 54:631) in 61% yield. The 5-iodo derivative of the 2'-amino,2'-deoxyuridine 5'-triphosphate was prepared by mercuration (Dale et al. (1975) Biochemistry 14:2447) in a single step.
RGD-UTP transcription and purification. RGD-UTP was used in a T7 RNA polymerase reaction by direct substitution for normal UTP, and gave yields that were at least 50% of those obtainable with UTP. The concentration of RGD-UTP and other NTPs was 1 mM; the DNA template contained 5' and 3' fixed regions flanking a 30 base pair random sequence. The RNA transcript was purified by adsorption onto an anion exchange column (Mono Q)in a phosphate buffer containing 6 M urea and 50% formamide, and eluted with a gradient to 1 M NaCl (Figure 16). RGD-RNA eluted as one major peak from the column at a position in the gradient slightly ahead of the elution position of an equivalent RNA transcript made with normal UTP, consistent with the altered charge and perhaps altered conformation of the derivatized RNA.

[1] = molecular target: T2, Human neutrophil elastase (Homo sapiens, UniProt P08246); experiment: Elastase inhibition assay with chromogenic tetrapeptide substrate; type: biochemical; settings: Lineweaver-Burk plot
T2 construct: purchased Athens Research and Technology, Athens, Georgia
T2 sequence (P08246 30-267): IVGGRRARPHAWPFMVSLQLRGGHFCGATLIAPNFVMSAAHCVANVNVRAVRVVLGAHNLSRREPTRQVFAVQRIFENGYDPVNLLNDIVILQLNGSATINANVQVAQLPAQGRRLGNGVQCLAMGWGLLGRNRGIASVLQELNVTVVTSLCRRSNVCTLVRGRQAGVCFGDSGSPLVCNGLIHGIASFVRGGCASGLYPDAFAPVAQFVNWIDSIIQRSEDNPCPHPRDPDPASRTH
From the text: Elastase inhibition assay. The assay for elastase inhibition is based on the use of a chromogenic tetrapeptide substrate. […] The rate of p-nitroanilide generation in the absence of inhibitor was used as the control.
Elastase Inhibition Assay. The assay for elastase inhibition is based on the use of a chromogenic tetrapeptide substrate. […] The rate of p-nitroanilide generation in the absence of inhibitor was used as the negative control; the positive control contained the irreversible inhibitor N-methoxysuccinyl-Ala-Ala-Pro-Val-chloromethyl ketone. OD values were plotted against time, and the slope used to determine the rate of enzyme activity.

[2] = molecular target: Human neutrophil elastase (human) (UniProt P08246); experiment: elastase inhibition assay with chromogenic substrate, Lineweaver-Burk plot (Figure 22)

T1 sequence (P00573 whole entry): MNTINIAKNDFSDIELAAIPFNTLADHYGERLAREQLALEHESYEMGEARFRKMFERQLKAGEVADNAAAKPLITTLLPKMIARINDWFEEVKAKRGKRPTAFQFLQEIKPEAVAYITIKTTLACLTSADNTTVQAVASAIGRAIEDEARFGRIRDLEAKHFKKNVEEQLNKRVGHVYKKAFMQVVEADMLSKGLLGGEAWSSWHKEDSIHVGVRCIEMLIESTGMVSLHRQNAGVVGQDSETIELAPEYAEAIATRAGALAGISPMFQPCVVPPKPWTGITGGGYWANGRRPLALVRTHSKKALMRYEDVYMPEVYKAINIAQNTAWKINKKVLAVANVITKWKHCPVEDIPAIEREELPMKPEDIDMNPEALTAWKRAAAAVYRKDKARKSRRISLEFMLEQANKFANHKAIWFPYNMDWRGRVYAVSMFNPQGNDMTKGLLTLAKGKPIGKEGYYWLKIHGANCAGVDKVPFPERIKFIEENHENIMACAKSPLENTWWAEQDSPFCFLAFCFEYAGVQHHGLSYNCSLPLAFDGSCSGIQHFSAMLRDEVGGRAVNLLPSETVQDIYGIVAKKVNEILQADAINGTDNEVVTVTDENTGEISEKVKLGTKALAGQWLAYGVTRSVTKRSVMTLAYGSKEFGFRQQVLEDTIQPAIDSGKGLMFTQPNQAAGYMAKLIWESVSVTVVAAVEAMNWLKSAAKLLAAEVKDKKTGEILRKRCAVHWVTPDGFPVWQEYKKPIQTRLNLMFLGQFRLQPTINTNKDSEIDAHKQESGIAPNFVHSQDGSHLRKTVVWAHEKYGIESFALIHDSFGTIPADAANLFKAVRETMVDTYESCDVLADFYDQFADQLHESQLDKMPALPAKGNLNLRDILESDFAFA

## 1-carboxypropyl theophylline [CP-Theophylline]
TCT8-4 RNA
  Ki: 0.93 ± 0.2 µM
  Kc(c)/Kc(t): 2.9

## 5-digoxygenin-11-uridine triphosphate [5-Dig-11-UTP]
T7 RNA polymerase
  efficiency of transcription (incorporation) as compared to UTP: 23%

## 5-fluorescein-12-uridine triphosphate [5-F-12-UTP]
T7 RNA polymerase
  efficiency of transcription (incorporation) as compared to UTP: 51%

## Cn1c(=O)[nH]c2nc[nH]c2c1=O [1-methylxanthine]
TCT8-4 RNA
  Ki: 9 ± 0.3 µM
  Kc(c)/Kc(t): 28

## N[C@@H]1[C@H](O)[C@@H](COP(=O)(O)OP(=O)(O)OP(=O)(O)O)O[C@H]1n1ccc(=O)[nH]c1=O [2'-amino,2'-deoxyuridine 5'-triphosphate]
T7 RNA polymerase
  substrate for T7 RNA polymerase: substrates for T7 RNA polymerase

## Cn1cnc2c1c(=O)[nH]c(=O)n2C [3,7-dimethylxanthine]
TCT8-4 RNA
  recognition by TCT8-4 RNA: recognized poorly
  Ki: > 500 µM
  Kc(c)/Kc(t): > 1500

## Cn1c(=O)[nH]c(=O)c2[nH]cnc21 [3-methylxanthine]
TCT8-4 RNA
  competition, fold better relative to xanthine: approximately 5 fold
  Ki: 2 ± 0.7 µM
  Kc(c)/Kc(t): 6.3

## NCC=Cc1cn(C2OC(COP(=O)(O)OP(=O)(O)OP(=O)(O)O)C(O)C2O)c(=O)[nH]c1=O (stereo not shown) [5-AA-UTP, 5-(3-aminoallyl)uridine triphosphate]
T7 RNA polymerase
  efficiency of transcription (incorporation) as compared to UTP: 28%

## O=c1[nH]c(=O)n([C@@H]2O[C@H](COP(=O)(O)OP(=O)(O)OP(=O)(O)O)[C@@H](O)[C@H]2O)cc1Br [5-Br-UTP, 5-bromouridine triphosphate]
T7 RNA polymerase
  efficiency of transcription (incorporation) as compared to UTP: 50%

## N[C@@H]1[C@H](O)[C@@H](COP(=O)(O)OP(=O)(O)OP(=O)(O)O)O[C@H]1n1cc(I)c(=O)[nH]c1=O [5-iodo,2'-amino,2'-deoxyuridine 5'-triphosphate]
T7 RNA polymerase
  substrate for T7 RNA polymerase: substrates for T7 RNA polymerase

## Cn1cnc2[nH]c(=O)[nH]c(=O)c21 [7-methylxanthine]
TCT8-4 RNA
  competition, fold less efficient than xanthine: at least 1500 fold
  Ki: > 500 µM
  Kc(c)/Kc(t): > 1500

## Cn1c(=O)c2c(ncn2C)n(C)c1=O [Caffeine, 1,3,7-trimethylxanthine]
TCT8-4 RNA
  recognition by TCT8-4 RNA: extremely poor competitor
  Ki: 3500 ± 1500 µM
  Kc(c)/Kc(t): 10900

## O=c1[nH]cnc2nc[nH]c12 [Hypoxanthine]
TCT8-4 RNA
  competition, fold less efficient than xanthine: approximately 5 fold
  Ki: 49 ± 10 µM
  Kc(c)/Kc(t): 153

## Cn1c(=O)c2[nH]cnc2n(C)c1=O [Theophylline, 1,3-dimethylxanthine]
TCT8-4 RNA
  Ki: 0.32 ± 0.13 µM
  Kc(c)/Kc(t): 1
TCT8-4 RNA; read-out: Kd for theophylline to RNA used for the competition fit
  Kd: 0.45 µM

## O=c1[nH]c(=O)c2[nH]cnc2[nH]1 [Xanthine]
TCT8-4 RNA
  competition, fold less effective than theophylline: about 23 fold
  Ki: 8.5 ± 0.4 µM
  Kc(c)/Kc(t): 27

## COC(=O)CCC(=O)N[C@@H](C)C(=O)N[C@@H](C)C(=O)N1CCC[C@H]1C(=O)N[C@H](C(=O)Nc1ccc([N+](=O)[O-])cc1)C(C)C [substrate, N-methoxysuccinyl-Ala-Ala-Pro-Val-p-nitroanilide] (MeOSuc-AAPV-pNA)
[1]
  Km: 160 µM

## N-methoxysuccinyl Ala-Ala-Pro-Val
[1]
  Ki: 920 µM

## N-methoxysuccinyl Ala-Ala-Pro-Val (SEQ ID NO:44) (peptide)
[2]
  Ki: 920 µM
